Test results taken from patent US20120204273A1, “COMPOSITIONS RELATING TO A PHOSPHOPROTEIN AND METHODS OF USE” (SANFORD-BURNHAM MEDICAL RESEARCH INSTITUTE, priority 2010, published 2012).
Numbering of substitutions follows the chain as printed. In names and notes the source's numbering stands.

B1: HA-CDP138-5DA: HA-tagged CDP138 with D19A, D26A, D76A, D78A, D84A (protein, UniProt Q86YS7 1-1000, looked up, variant D19A D26A D76A D78A D84A)
C2 domain-containing protein 5: MPGKLKVKIVAGRHLPVMARASDLTAAFVEVKFGNTTFKTDVYLKSLNPQWNSEWFKFEVDDEDLQDEPLQITVLAHATYSANAAIGKVYIDIDPLLYSEAATVISGWFPIYDTIHGIRGEINVVVKVDLFNDLNRFRQSSCGVKFFCTTSIPKCYRAVIIHGFVEELVVNEDPEYQWIDRIRTPRASNEARQRLISLMSGELQRKIGLKVLEMRGNAVVGYLQCFDLEGESGLVVRAIGTACTLDKLSSPAAFLPACNSPSKEMKEIPFNEDPNPNTHSSGPSTPLKNQTYSFSPSKSYSRQSSSSDTDLSLTPKTGMGSGSAGKEGGPFKALLRQQTQSALEQREFPFFTLTAFPPGFLVHVGGVVSARSVKLLDRIHNPDEPETRDAWWAEIRQEIKSHAKALGCHAVVGYSESTSICEEVCILSASGTAAVLNPRFLQDGTVEGCLEQRLEENLPTRCGFCHIPYDELNMPFPAHLTYCYNCRKQKVPDVLFTTIDLPTDATVIGKGCLIQARLCRLKKKAQAEANATAISNLLPFMEYEVHTQLMNKLKLKGMNALFGLRIQITVGENMLMGLASATGVYLAALPTPGGIQIAGKTPNDGSYEQHISHMQKKINDTIAKNKELYEINPPEISEEIIGSPIPEPRQRSRLLRSQSESSDEVTELDLSHGKKDAFVLEIDDTDAMEDVHSLLTDVPPPSGFYSCNTEIMPGINNWTSEIQMFTSVRVIRLSSLNLTNQALNKNFNDLCENLLKSLYFKLRSMIPCCLCHVNFTVSLPEDELIQVTVTAVAITFDKNQALQTTKTPVEKSLQRASTDNEELLQFPLELCSDSLPSHPFPPAKAMTVEKASPVGDGNFRNRSAPPCANSTVGVVKMTPLSFIPGAKITKYLGIINMFFIRETTSLREEGGVSGFLHAFIAEVFAMVRAHVAALGGNAVVSYIMKQCVFMENPNKNQAQCLINVSGDAVVFVRESDLEVVSSQQPTTNCQSSCTEGEVTT
modifications: HA tag
notes: HA-tagged CDP138 with D19A, D26A, D76A, D78A, D84A
B2: HA-CDP138-S197A: HA-tagged CDP138 mutant lacking the Akt2 phosphorylation site Ser197 (protein, UniProt Q86YS7 1-1000, looked up, variant S197A)
C2 domain-containing protein 5: B1 C2 domain-containing protein 5 with A19D, A26D, A76D, A78D, A84D, S197A
modifications: HA tag
notes: HA-tagged CDP138 mutant lacking the Akt2 phosphorylation site Ser197

Legend:
3T3-L1 adipocytes [1] = assay: myc-GLUT4-GFP translocation to the cell surface; format: cell-based, mouse; details: for effect on insulin-stimulated myc-GLUT4-GFP translocation to cell surface: fixed cells, Akti1/2 50 μM for 1 hr, insulin 100 nM 30 min; for effect of overexpression on insulin-stimulated myc-GLUT4-GFP translocation (TIRF myc / Epi GFP): insulin 100 nM, 30 min
Protocol: FIG. 2, panels A-C show knockdown of CDP138 in 3T3-L1 adipocytes inhibits insulin-stimulated glucose transport (A) and myc-GLUT4-GFP translocation (B), but not endogenous GLUT4 movement to the periphery detected in TIRF zone (C). (A): Differentiated adipocytes at day 5 were transfected with siRNAs against mouse 5730419I09Rik or the scrambled siRNA (Scr) as described earlier (Jiang et al., 2003) for 60 hrs, then serum starved overnight. Cells were then treated with or without insulin (1 nM and 100 nM) for 30 min for the glucose uptake assay, or 15 min for immunoblotting of CDP138, pAkt, Akt and β-actin. Glucose transport data are presented as mean±SD of 4 independent experiments. *P<0.05 vs Scr Insulin (1 nM) group; **P<0.01 vs Scr Insulin (100 nM) group. (B): Day 5 adipocytes were transfected with siRNAs and myc-GLUT4-GFP for 60 hrs and then serum starved overnight. Cells were then treated with insulin (1 nM) for 20 min. Cell surface Myc-GLUT4-GFP was detected with anti-myc monoclonal Ab (9E10) and Alexa Fluor 568-labeled goat anti-mouse IgG in non-permeablized cells. The Myc signal and GFP signal were quantified as previously described (Jiang et al., 2002). Data presented are representative microscopic images and mean±SD of about 160 GFP-positive cells in each group from three independent experiments. **P<0.01 vs Scr Insulin (1 nM) group. […] GLUT4 was detected with a goat anti-GLUT4 Ab and Alexa Fluor 488-conjugated donkey anti-goat Ab in permeabilized cells. Top and middle panels show 100 nm TIRF zone and representative GLUT4 TIRFM images, respectively. Data are mean±SD of 3 independent experiments. **P<0.01 vs Scr Insulin groups.
GLUT4 translocation detection with wide field fluorescence and TIRF microscopy: Both wide field and TIRF microscopy were used to detect myc-GLUT4-GFP translocation to the cell surface as previously described (Jiang et al., 2002) and herein.
To test the effect of RNAi-induced gene specific knockdown of CDP138 or overexpression of CDP138 mutants on GLUT4 translocation, siRNAs or CDP138 constructs were transfected into adipocytes together with myc-GLUT4-GFP by electroporation as previously described (Jiang et al, 2003). […] Cells were washed with cold PBS, fixed with 4% formaldehyde and immunostained. Briefly, for siRNA study, the cell surface Myc-GLUT4-GFP was visualized with mouse anti-Myc Ab (9E10) and AlexaFluoro568-labeled goat anti-mouse secondary Ab (Invitrogen) in PBS containing 1% FBS. After washing, the coverslip were mounted with Prolong antifade reagent (Invitrogen, Eugene Oreg.). Fluorescence microscopy was carried as described below. Then, images were acquired with wide field microscopy as described below. For the study with overexpressed HAtagged CDP138 constructs, the cell surface Myc-GLUT4-GFP was visualized with rabbit anti-Myc Ab (Cell signaling, Inc) and AlexaFluoro568-labeled goat anti-rabbit secondary Ab (InVitrogen) in PBS containing 1% FBS. Cells were further permeabilized with PSB containing 0.5% Tween-20, and HA-tagged protein was detected with a mouse anti-HA epitope primary Ab followed by AlexaFluoro-350-labelled goat anti-mouse IgG. Insulin-induced myc-GLUT4 accumulation (AlexaFluoro-568 signal) within the evanescence excitation field (100 nm from dorsal membrane) in transfected adipocytes was measured with a Nikon Eclipse-Ti microscope equipped with a CoolSNAP HQ2 camera and laser scanning TIRF capacity. Total GLUT4-GFP signals and […] Alexa Fluoro-350 signals were acquired with wide field imaging to identify double-transfected cells. The ratio of myc-GLUT4 signal in the TIRF zone to the total Epi-GFP signal in wide field was used as a measure of GLUT4 translocation to the cell surface.
(§1) Image Analysis and Quantification: TIRF and wide field fluorescence microscopy were performed using a Nikon inverted microscope (Melville, N.Y.) with a cooled charge-coupled device camera. […]

3T3-L1 adipocytes [2] = assay: GSV-PM fusion in live adipocytes (IRAP-pHluorin, TIRF microscopy); format: cell-based, mouse; details: Akti1/2 5 μM for 1 h, insulin 100 nM 30 min
Description: FIG. 3, panels A-C, show knockdown of CDP138 in live 3T3-L1 adipocytes inhibits insulin-stimulated membrane fusion between GLUT4 storage vesicles (GSV) and the PM, but not GLUT4-EGFP trafficking to the TIRF zone. (A): Schematic illustration of the molecular probes and TIRF microcopy-based live cell assays for GLUT4 trafficking and GSV-PM fusion. (B) and (C): The effect of CDP138 knockdown on insulin-stimulated IRAP-pHluorin insertion into the PM (B), and accumulation of GLUT4-EGFP in the TIRF zone (C). Adipocytes (day 4) were transfected by electroporation with plasmid DNA encoding IRAP-pHluorin or GLUT4-EGFP, together with either the scrambled siRNA or smartPool siRNA against mouse 5730419I09Rik. Cells were reseeded on glass-bottomed dishes for 72 hrs, serum starved for 2 hr then stimulated with 100 nM insulin for 30 min. Analyses were performed in a cell warmer adapted for a Nikon TiE with fully motorized combined dual laser (488 and 561 nm). Images were acquired every 3 min immediately after addition of insulin and analyzed as described in the Supplementary Experimental Procedures. Perfect focus system and multiple points capture program (NIS Element) were used to acquire images from multiple positively transfected cells at each time point. […]
Total Internal Reflection Fluorescence (TIRF) Microscopy: Nikon (Melville, N.Y.) TI-TIRF-E, which was based on the objective lens method, was used to perform all the TIRF experiments. […] Positively transfected adipocytes were identified, and the insulin-stimulated IRAP vesicle-PM fusion events or GLUT4-EGFP trafficking to the TIRF zone were recorded every 3 min for a 30 min period using Nikon Eclipse-Ti TIRF microscope. […]
as §1

Molecule	effect on insulin-stimulated myc-GLUT4-GFP translocation to cell surface (3T3-L1 adipocytes [1])	effect on insulin-stimulated myc-GLUT4-GFP translocation to cell surface (3T3-L1 adipocytes [1]; listed as Akti1/2)	effect on insulin-induced GSV-PM membrane fusion (3T3-L1 adipocytes [2])	effect on insulin-induced GSV-PM membrane fusion (3T3-L1 adipocytes [2]; listed as Akti1/2)	effect of overexpression on insulin-stimulated myc-GLUT4-GFP translocation (TIRF myc / Epi GFP) (3T3-L1 adipocytes [1])	effect of overexpression on insulin-stimulated myc-GLUT4-GFP translocation (TIRF myc / Epi GFP) (3T3-L1 adipocytes [1]; listed as S197A)
O=c1[nH]c2ccccc2n1C1CCN(Cc2ccc(-c3nc4cc5nc[nH]c5cc4nc3-c3ccccc3)cc2)CC1 [Akti, reference compound]	significantly inhibited	blocks	significantly inhibited	blocks		
B1					inhibited	
B2					inhibited	blocked
